{
  "source": "patent US10064873B2",
  "about": "“Compounds and compositions for treating HIV with derivatives of Betulin” (GlaxoSmithKline LLC, priority 2011, dated 2018)",
  "data": [
    {"system": "HIV NL4-3 wt", "assay": "MT4 antiviral assay, NL4-3 strain wild type", "assay_type": "cell-based, HIV-1", "settings": "Human immunodeficiency virus 1, NL43, MT4, read-out: EC50 NL4-3 wt (nM)", "units": {"EC50": "nM"}, "values": [
      {"smiles": "CC(=O)O[C@H](CNCc1cccc(Cl)c1)[C@@]12CC[C@]3(C)[C@H](CC[C@@H]4[C@@]5(C)CC[C@H](OC(=O)CC(C)(C)C(=O)O)C(C)(C)[C@@H]5CC[C@]43C)C1=C(C(C)C)C(=O)C2", "note": "[Example 39, 4-(((3aR,5aR,5bR,7aR,9S,11aR,11bR,13aS)-3a-((S)-1-Acetoxy-2-((3-chlorobenzyl)amino)ethyl)-1-isopropyl-5a,5b,8,8,11a-pentamethyl-2-oxo-3,3a,4,5,5a,5b,6,7,7a,8,9,10,11,11a,11b,12,13,13a-octadecahydro-2H-cyclopenta[a]chrysen-9-yl)oxy)-2,2-dimethyl-4-oxobutanoic acid]", "EC50": 6.6},
      {"smiles": "CC(=O)O[C@@H](CNCc1cccc(Cl)c1)[C@@]12CC[C@]3(C)[C@H](CC[C@@H]4[C@@]5(C)CC[C@H](OC(=O)CC(C)(C)C(=O)O)C(C)(C)[C@@H]5CC[C@]43C)C1=C(C(C)C)C(=O)C2", "note": "[Example 40, 4-(((3aR,5aR,5bR,7aR,9S,11aR,11bR,13aS)-3a-((R)-1-Acetoxy-2-((3-chlorobenzyl)amino)ethyl)-1-isopropyl-5a,5b,8,8,11a-pentamethyl-2-oxo-3,3a,4,5,5a,5b,6,7,7a,8,9,10,11,11a,11b,12,13,13a-octadecahydro-2H-cyclopenta[a]chrysen-9-yl)oxy)-2,2-dimethyl-4-oxobutanoic acid]", "EC50": 11.1},
      {"smiles": "CCN(Cc1ccccc1Cl)C[C@H](O)[C@@]12CC[C@]3(C)[C@H](CC[C@@H]4[C@@]5(C)CC[C@H](OC(=O)CC(C)(C)C(=O)O)C(C)(C)[C@@H]5CC[C@]43C)C1=C(C(C)C)C(=O)C2", "note": "[Example 49, 4-(((3aR,5aR,5bR,7aR,9S,11aR,11bR,13aS)-3a-((R)-2-((2-chlorobenzyl)(ethyl)amino)-1-hydroxyethyl)-1-isopropyl-5a,5b,8,8,11a-pentamethyl-2-oxo-3,3a,4,5,5a,5b,6,7,7a,8,9,10,11,11a,11b,12,13,13a-octadecahydro-2H-cyclopenta[a]chrysen-9-yl)oxy)-2,2-dimethyl-4-oxobutanoic acid]", "EC50": 21.8},
      {"smiles": "CC(C)C1=C2[C@H]3CC[C@@H]4[C@@]5(C)CC[C@H](OC(=O)CC(C)(C)C(=O)O)C(C)(C)[C@@H]5CC[C@@]4(C)[C@]3(C)CC[C@@]2([C@H]2CN(C3(c4ncc(Cl)cn4)CC3)C(=O)O2)CC1=O", "note": "[Example 60, 4-(((3aR,5aR,5bR,7aR,9S,11aR,11bR,13aS)-3a-((S)-3-(1-(5-chloropyrimidin-2-yl)cyclopropyl)-2-oxooxazolidin-5-yl)-1-isopropyl-5a,5b,8,8,11a-pentamethyl-2-oxo-3,3a,4,5,5a,5b,6,7,7a,8,9,10,11,11a,11b,12,13,13a-octadecahydro-2H-cyclopenta[a]chrysen-9-yl)oxy)-2,2-dimethyl-4-oxobutanoic acid]", "EC50": 60.2},
      {"smiles": "CC(C)C1=C2[C@H]3CC[C@@H]4[C@@]5(C)CC[C@H](OC(=O)CC(C)(C)C(=O)O)C(C)(C)[C@@H]5CC[C@@]4(C)[C@]3(C)CC[C@@]2([C@@H]2CN(C3(c4ncc(Cl)cn4)CC3)C(=O)O2)CC1=O", "note": "[Example 61, 4-(((3aR,5aR,5bR,7aR,9S,11aR,11bR,13aS)-3a-((R)-3-(1-(5-chloropyrimidin-2-yl)cyclopropyl)-2-oxooxazolidin-5-yl)-1-isopropyl-5a,5b,8,8,11a-pentamethyl-2-oxo-3,3a,4,5,5a,5b,6,7,7a,8,9,10,11,11a,11b,12,13,13a-octadecahydro-2H-cyclopenta[a]chrysen-9-yl)oxy)-2,2-dimethyl-4-oxobutanoic acid]", "EC50": 130}
    ]},
    {"system": "HIV NL4-3 wt", "assay": "MT4 antiviral assay, NL4-3 strain wild type", "assay_type": "cell-based, HIV-1", "settings": "Human immunodeficiency virus 1, NL43; MT4 cells; read-out: EC50 NL4-3 wt", "units": {"EC50": "nM"}, "values": [
      {"smiles": "CC(C)C1=C2[C@H]3CC[C@@H]4[C@@]5(C)CC[C@H](OC(=O)CC(C)(C)C(=O)O)C(C)(C)[C@@H]5CC[C@@]4(C)[C@]3(C)CC[C@@]2([C@H](O)CN(CCN(C)C)Cc2cccc(Cl)c2)CC1=O", "note": "[Example 44, 4-(((3aR,5aR,5bR,7aR,9S,11aR,11bR,13aS)-3a-((S)-2-((3-Chlorobenzyl)(2-(dimethylamino)ethyl)amino)-1-hydroxyethyl)-1-isopropyl-5a,5b,8,8,11a-pentamethyl-2-oxo-3,3a,4,5,5a,5b,6,7,7a,8,9,10,11,11a,11b,12,13,13a-octadecahydro-2H-cyclopenta[a]chrysen-9-yl)oxy)-2,2-dimethyl-4-oxobutanoic acid]", "EC50": 1.8},
      {"smiles": "CC(C)C1=C2[C@H]3CC[C@@H]4[C@@]5(C)CC[C@H](OC(=O)CC(C)(C)C(=O)O)C(C)(C)[C@@H]5CC[C@@]4(C)[C@]3(C)CC[C@@]2([C@@H](O)CN(CCN(C)C)Cc2cccc(Cl)c2)CC1=O", "note": "[Example 45, 4-(((3aR,5aR,5bR,7aR,9S,11aR,11bR,13aS)-3a-((R)-2-((3-Chlorobenzyl)(2-(dimethylamino)ethyl)amino)-1-hydroxyethyl)-1-isopropyl-5a,5b,8,8,11a-pentamethyl-2-oxo-3,3a,4,5,5a,5b,6,7,7a,8,9,10,11,11a,11b,12,13,13a-octadecahydro-2H-cyclopenta[a]chrysen-9-yl)oxy)-2,2-dimethyl-4-oxobutanoic acid]", "EC50": 1.9},
      {"smiles": "CC(=O)N(Cc1cccc(Cl)c1)C[C@@H](O)[C@@]12CC[C@]3(C)[C@H](CC[C@@H]4[C@@]5(C)CC[C@H](OC(=O)CC(C)(C)C(=O)O)C(C)(C)[C@@H]5CC[C@]43C)C1=C(C(C)C)C(=O)C2", "note": "[Example 47, 4-(((3aR,5aR,5bR,7aR,9S,11aR,11bR,13aS)-3a-((S)-2-(N-(3-chlorobenzyl)acetamido)-1-hydroxyethyl)-1-isopropyl-5a,5b,8,8,11a-pentamethyl-2-oxo-3,3a,4,5,5a,5b,6,7,7a,8,9,10,11,11a,11b,12,13,13a-octadecahydro-2H-cyclopenta[a]chrysen-9-yl)oxy)-2,2-dimethyl-4-oxobutanoic acid]", "EC50": 7.7},
      {"smiles": "CC(C)C1=C2[C@H]3CC[C@@H]4[C@@]5(C)CC[C@H](OC(=O)CC(C)(C)C(=O)O)C(C)(C)[C@@H]5CC[C@@]4(C)[C@]3(C)CC[C@@]2([C@@H](O)CN(CCN(C)C)Cc2ccccc2Cl)CC1=O", "note": "[Example 50, 4-(((3aR,5aR,5bR,7aR,9S,11aR,11bR,13aS)-3a-((R)-2-((2-chlorobenzyl)(2-(dimethylamino)ethyl)amino)-1-hydroxyethyl)-1-isopropyl-5a,5b,8,8,11a-pentamethyl-2-oxo-3,3a,4,5,5a,5b,6,7,7a,8,9,10,11,11a,11b,12,13,13a-octadecahydro-2H-cyclopenta[a]chrysen-9-yl)oxy)-2,2-dimethyl-4-oxobutanoic acid]", "EC50": 1.1},
      {"smiles": "CC(=O)O[C@@H](CNCc1ccccc1)[C@@]12CC[C@]3(C)[C@H](CC[C@@H]4[C@@]5(C)CC[C@H](OC(=O)CC(C)(C)C(=O)O)C(C)(C)[C@@H]5CC[C@]43C)C1=C(C(C)C)C(=O)C2", "note": "[Example 52, 4-(((3aR,5aR,5bR,7aR,9S,11aR,11bR,13aS)-3a-((R)-1-Acetoxy-2-(benzylamino)ethyl)-1-isopropyl-5a,5b,8,8,11a-pentamethyl-2-oxo-3,3a,4,5,5a,5b,6,7,7a,8,9,10,11,11a,11b,12,13,13a-octadecahydro-2H-cyclopenta[a]chrysen-9-yl)oxy)-2,2-dimethyl-4-oxobutanoic acid]", "EC50": 4.6}
    ]}
  ]
}
